# Results: patent US20210230170A1, “KRAS G12C INHIBITORS” (Mirati Therapeutics, Inc., priority 2018, published 2021)
# Target: T1, KRas G12C (Homo sapiens, UniProt P01116, G12C)
# T1 construct: NCI-H358 cells (ATCC CRL-5807) express KRas G12C; host or cells: NCI-H358
# Assay: Inhibition of KRas G12C in NCI-H358 cells measured by phosphorylated ERK (Phospho-ERK)
# Assay type: cell-based
# Conditions: pERK(Thr202/Tyr204) signal normalized with GAPDH, percent of DMSO control, 3 hours compound treatment
# Procedure: The cellular inhibition of KRAs G12C by exemplary compounds of the present invention was determined by measuring the amount of a downstream marker of KRas activity, phosphorylated ERK (“Phospho-ERK”).
# NCI-H358 cells (ATCC CRL-5807) express KRas G12C and were grown in RPMI medium supplemented with 10% fetal bovine serum, penicillin/streptomycin and 10 mM HEPES. Cells were plated in poly-D-Lysine coated 96-well plates at a concentration of 50,000 cells/well and allowed to attach for 8-12 hours. Diluted compounds were then added at a final concentration of 0.5% DMSO. After 3 hours, the medium was removed, 150 μL of 4% formaldehyde was added and the plates were incubated for 20 minutes. The plates were washed with PBS, and permeabilized using 150 μL of ice cold 100% methanol for 10 minutes. Non-specific antibody binding to the plates was blocked using 100 μL Licor Blocking Buffer (Li-Cor Biotechnology, Lincoln Nebr.) for 1 hour at room temperature. Positive control samples and samples lacking cells were parallel processed with test samples as standards.
# The amount Phospho-ERK was determined using an antibody specific for the phosphorylated form of ERK and compared to the amount of GAPDH. Primary antibodies used for detection were added as follows: Phospho-ERK (Cell Signaling cs9101) diluted 1:500 and GAPDH (Millipore MAB374) diluted 1:5000 in Licor block+0.05% Tween 20. The plates were incubated for 2 hours at room temperature. The plates were washed with PBS+0.05% Tween 20.
# Secondary antibodies used to visualize primary antibodies were added as follows: Anti-rabbit-680 diluted 1:1000 and Anti-mouse-800 diluted 1:1000 in Licor Block+0.05% Tween 20 and incubated for 1 hour at room temperature. The plates were washed with PBS+0.05% Tween 20. A 100 μL aliquot of PBS was added to each well and the plates were read on a LICOR AERIUS plate reader.
# The pERK(Thr202/Tyr204) signal was normalized with the GAPDH signal and percent of DMSO control values were calculated. IC50 values were generated using a 4 parameter fit of the dose response curve. Key: “A”≤500 nM; “B”>500 nM and ND=not determined.
# T1 sequence (P01116 1-188 isoform P01116-2 G12C): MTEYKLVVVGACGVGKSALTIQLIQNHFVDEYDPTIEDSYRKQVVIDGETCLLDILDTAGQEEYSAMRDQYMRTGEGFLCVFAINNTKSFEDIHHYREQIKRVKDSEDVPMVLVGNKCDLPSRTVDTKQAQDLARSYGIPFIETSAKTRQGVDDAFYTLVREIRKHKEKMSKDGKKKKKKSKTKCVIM
row,Compound,IC50 [nM]
1,"C=CC(=O)N1CCN(c2nc(OC[C@@H]3CCCN3C)nc3c2CCCN(c2c(C)cccc2F)C3)C[C@@H]1CC#N [Example 18, 2-[(2S)-4-[8-(2-fluoro-6-methyl-phenyl)-2-[[(2S)-1-methylpyrrolidin-2-yl]methoxy]-5,6,7,9-tetrahydropyrimido[4,5-c]azepin-4-yl]-1-prop-2-enoyl-piperazin-2-yl]acetonitrile]",≤ 500
2,"C=CC(=O)N1CCN(c2nc(OC[C@@H]3CCCN3C)nc3c2CCCN(c2c(C)ccc4ccccc24)C3)C[C@@H]1CC#N [Example 3, 2-[(2S)-4-[8-(2-methyl-1-naphthyl)-2-[[(2S)-1-methylpyrrolidin-2-yl]methoxy]-5,6,7,9-tetrahydropyrimido[4,5-c]azepin-4-yl]-1-prop-2-enoyl-piperazin-2-yl]acetonitrile]",≤ 500
3,"C=CC(=O)N1CCN(c2nc(OC[C@@H]3CCCN3C)nc3c2CCCN(c2ccccc2)C3)C[C@@H]1CC#N [Example 5, 2-[(2S)-4[2-[[(2S)-1-methylpyrrolidin-2-yl]methoxy]-8-phenyl-5,6,7,9-tetrahydropyrimido[4,5-c]azepin-4-yl]-1-prop-2-enoyl-piperazin-2-yl]acetonitrile]",> 500
4,"C=CC(=O)N1CCN(c2nc(OC[C@@H]3CCCN3C)nc3c2CCCN(c2ncccc2C(F)(F)F)C3)C[C@@H]1CC#N [Example 15, 2-[(2S)-4-[2-[[(2S)-1-methylpyrrolidin-2-yl]methoxy]-8-[3-(trifluoromethyl)-2-pyridyl]-5,6,7,9-tetrahydropyrimido[4,5-c]azepin-4-yl]-1-prop-2-enoyl-piperazin-2-yl]acetonitrile]",> 500
5,"C=CC(=O)N1CCN(c2nc(OC[C@@H]3CCCN3C)nc3c2CCCN(c2cccc(F)c2C(F)(F)F)C3)C[C@@H]1CC#N [Example 14, 2-[(2S)-4-[8-[3-fluoro-2-(trifluoromethyl)phenyl]-2-[[(2S)-1-methylpyrrolidin-2-yl]methoxy]-5,6,7,9-tetrahydropyrimido[4,5-c]azepin-4-yl]-1-prop-2-enoyl-piperazin-2-yl]acetonitrile]",≤ 500
6,"C=CC(=O)N1CCN(c2nc(OC[C@@H]3CCCN3C)nc3c2CCCN(c2c(F)ccc4ccccc24)C3)C[C@@H]1CC#N [Example 10, 2-((S)-1-acryloyl-4-(8-(2-fluoronaphthalen-1-yl)-2-(((S)-1-methylpyrrolidin-2-yl)methoxy)-6,7,8,9-tetrahydro-5H-pyrimido[4,5-c]azepin-4-yl)piperazin-2-yl)acetonitrile]",≤ 500
7,"C=CC(=O)N1CCN(c2nc(OC[C@@H]3CCCN3C)nc3c2CCCN(c2cccc4cccc(C)c24)C3)C[C@@H]1CC#N [Example 1, 2-[(2S)-4-[8-(8-methyl-1-naphthyl)-2-[[(2S)-1-Methylpyrrolidin-2-yl]methoxy]-5,6,7,9-tetrahydropyrimido[4,5-c]azepin-4-yl]-1-prop-2-enoyl-piperazin-2-yl]acetonitrile]",≤ 500
8,"C=CC(=O)N1CCN(c2nc(OC[C@@H]3CCCN3C)nc3c2CCCN(c2cccc4cccc(C(F)(F)F)c24)C3)C[C@@H]1CC#N [Example 21, 2-((S)-1-acryloyl-4-(2-(((S)-1-methylpyrrolidin-2-yl)methoxy)-8-(8-(trifluoromethyl)naphthalen-1-yl)-6,7,8,9-tetrahydro-5H-pyrimido[4,5-c]azepin-4-yl)piperazin-2-yl)acetonitrile]",> 500
9,"C=CC(=O)N1CCN(c2nc(OC[C@@H]3CCCN3C)nc3c2CCCN(c2nccc4cccc(C)c24)C3)C[C@@H]1CC#N [Example 17, 2-[(2S)-4-[8-(8-methyl-1-isoquinolyl)-2-[[(2S)-1-methylpyrrolidin-2-yl]methoxy]-5,6,7,9-tetrahydropyrimido[4,5-c]azepin-4-yl]-1-prop-2-enoyl-piperazin-2-yl]acetonitrile]",≤ 500
10,"C=CC(=O)N1CCN(c2nc(OC[C@@H]3CCCN3C)nc3c2CCCN(c2cccc4cccc(Cl)c24)C3)C[C@@H]1CC#N [Example 7, 2-((S)-1-acryloyl-4-(8-(8-chloronaphthalen-1-yl)-2-(((S)-1-methylpyrrolidin-2-yl)methoxy)-6,7,8,9-tetrahydro-5H-pyrimido[4,5-c]azepin-4-yl)piperazin-2-yl)acetonitrile]",> 500
11,"C=C(F)C(=O)N1CCN(c2ncnc3c2CCCN(c2cccc4cccc(C)c24)C3)C[C@@H]1CC#N [Example 23, 2-[(2S)-1-(2-fluoroprop-2-enoyl)-4-[8-(8-methyl-1-naphthyl)-5,6,7,9-tetrahydropyrimido[4,5-c]azepin-4-yl]piperazin-2-yl]acetonitrile]",> 500
12,"C=CC(=O)N1CCN(c2ncnc3c2CCCN(c2cccc4cccc(C)c24)C3)C[C@@H]1CC#N [Example 25, 2-[(2S)-4-[8-(8-methyl-1-naphthyl)-5,6,7,9-tetrahydropyrimido[4,5-c]azepin-4-yl]-1-prop-2-enoyl-piperazin-2-yl]acetonitrile]",> 500

# Now from value to compound:
row,IC50 [nM],Compound
1,> 500,"C=CC(=O)N1CCN(c2nc(OC[C@@H]3CCCN3C)nc3c2CCCN(c2cccc4c(C)cccc24)C3)C[C@@H]1CC#N [Example 11, 2-((S)-1-acryloyl-4-(8-(5-methylnaphthalen-1-yl)-2-(((S)-1-methylpyrrolidin-2-yl)methoxy)-6,7,8,9-tetrahydro-5H-pyrimido[4,5-c]azepin-4-yl)piperazin-2-yl)acetonitrile]"
2,> 500,"C=CC(=O)N1CCN(c2nc(OC[C@@H]3CCCN3C)nc3c2CCCN(c2ccccc2CO)C3)C[C@@H]1CC#N [Example 16, 2-[(2S)-4-[8-[2-(hydroxymethyl)phenyl]-2-[[(2S)-1-methylpyrrolidin-2-yl]methoxy]-5,6,7,9-tetrahydropyrimido[4,5-c]azepin-4-yl]-1-prop-2-enoyl-piperazin-2-yl]acetonitrile]"
3,> 500,"C=C(F)C(=O)N1CCN(c2nc(OC[C@@H]3CCCN3C)nc3c2CCCN(c2c(C)ccc4[nH]ncc24)C3)C[C@@H]1CC#N [Example 20, 2-[(2S)-1-(2-fluoroprop-2-enoyl)-4-[8-(5-methyl-1H-indazol-4-yl)-2-[[(2S)-1-methylpyrrolidin-2-yl]methoxy]-5,6,7,9-tetrahydropyrimido[4,5-c]azepin-4-yl]piperazin-2-yl]acetonitrile]"
4,> 500,"C=C(F)C(=O)N1CCN(c2nc(OC[C@@H]3CCCN3C)nc3c2CCCN(c2cccc4[nH]ncc24)C3)C[C@@H]1CC#N [Example 26, 2-((S)-4-(8-(1H-indazol-4-yl)-2-(((S)-1-methylpyrrolidin-2-yl)methoxy)-6,7,8,9-tetrahydro-5H-pyrimido[4,5-c]azepin-4-yl)-1-(2-fluoroacryloyl)piperazin-2-yl)acetonitrile]"
5,> 500,"C=CC(=O)N1CCN(c2nc(OC[C@@H]3CCCN3C)nc3c2CCCN(c2c(C)ccc4[nH]ncc24)C3)C[C@@H]1CC#N [Example 19, 2-[(2S)-4-[8-(5-methyl-1H-indazol-4-yl)-2-[[(2S)-1-methylpyrrolidin-2-yl]methoxy]-5,6,7,9-tetrahydropyrimido[4,5-c]azepin-4-yl]-1-prop-2-enoyl-piperazin-2-yl]acetonitrile]"
6,> 500,"C=CC(=O)N1CCN(c2nc(OC[C@@H]3CCCN3C)nc3c2CCCN(c2ccccc2C)C3)C[C@@H]1CC#N [Example 4, 2-[(2S)-4-[2-[[(2S)-1-methylpyrrolidin-2-yl]methoxy]-8-(o-tolyl)-5,6,7,9-tetrahydropyrimido[4,5-c]azepin-4-yl]-1-prop-2-enoyl-piperazin-2-yl]acetonitrile]"
7,> 500,"C=CC(=O)N1CCN(c2nc(OC[C@@H]3CCCN3C)nc3c2CCCN(c2cccc4ccccc24)C3)C[C@@H]1CC#N [Example 6, 2-[(2S)-4-[2-[[(2S)-1-methylpyrrolidin-2-yl]methoxy]-8-(1-naphthyl)-5,6,7,9-tetrahydropyrimido[4,5-c]azepin-4-yl]-1-prop-2-enoyl-piperazin-2-yl]acetonitrile]"
8,> 500,"C=C(F)C(=O)N1CCN(c2nc(OC[C@@H]3CCCN3C)nc3c2CCCN(c2cccc4cccc(C)c24)C3)C[C@@H]1CC#N [Example 2, 2-[(2S)-1-(2-fluoroprop-2-enoyl)-4-[8-(8-methyl-1-naphthyl)-2-[[(2S)-1-methylpyrrolidin-2-yl]methoxy]-5,6,7,9-tetrahydropyrimido[4,5-c]azepin-4-yl]piperazin-2-yl]acetonitrile]"
9,> 500,"C=C(F)C(=O)N1CCN(c2nc(OC[C@@H]3CCCN3C)nc3c2CCCN(c2cccc4ccccc24)C3)C[C@@H]1CC#N [Example 22, 2-((S)-1-(2-fluoroacryloyl)-4-(2-(((S)-1-methylpyrrolidin-2-yl)methoxy)-8-(naphthalen-1-yl)-6,7,8,9-tetrahydro-5H-pyrimido[4,5-c]azepin-4-yl)piperazin-2-yl)acetonitrile]"
